Laboratory results: the supplement of paper PMC5908809

Legend:
[1] = system: NK-92 (IL-2 2.5 ng/mL); assay: drug sensitivity score (DSS) (DSS units); higher = more sensitive; extreme values may be limits of the assay; settings: 72 h
[2] = system: KAI3 (IL-2 2.5 ng/mL); assay: as above; settings: 72 h
[3] = system: YT (IL-2 2.5 ng/mL); assay: as above; settings: 72 h
[4] = system: NKL (IL-2 2.5 ng/mL); assay: as above; settings: 72 h
[5] = system: normal primary NK cells, pool 1 (3 donors) (IL-2 2.5 ng/mL); assay: as above; settings: 72 h
[6] = system: normal primary NK cells, pool 1 (3 donors), resting (IL-2 0 ng/mL); assay: as above; settings: 72 h
[7] = system: normal primary NK cells, pool 3 (3 donors) (IL-2 2.5 ng/mL); assay: as above; settings: 72 h
[8] = system: IMC-1 (IL-2 20 ng/mL); assay: as above; settings: 72 h
[9] = system: DERL-7 (IL-2 2.5 ng/mL); assay: as above; settings: 72 h
[10] = system: NK-YS (IL-2 2.5 ng/mL); assay: as above; settings: 72 h
[11] = system: KHYG-1 (IL-2 2.5 ng/mL); assay: as above; settings: 72 h
[12] = system: normal primary NK cells, pool 2 (3 donors) (IL-2 2.5 ng/mL); assay: as above; settings: 72 h
[13] = system: SNK-6 (IL-2 2.5 ng/mL); assay: as above; settings: 72 h
[14] = system: normal NK cells expanded with K562-aAPC; assay: percent inhibition of viability; higher = more inhibition; settings: 72 h, IL-2 2.5 ng/mL
Experimental: (§1)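 Drug sensitivity and resistance testing on K562-aAPC-expanded normal NK cells: 5 concentrations (10-fold steps over a 10,000-fold range), 72 h at 37 °C, viability by CellTiter-Glo normalised to DMSO and benzethonium chloride controls; DSS from the fitted curve.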

[15] = system: normal NK cells expanded with K562-aAPC; assay: drug sensitivity score (DSS) (DSS units); higher = more sensitive; extreme values may be limits of the assay; settings: 72 h; IL-2 2.5 ng/mL
Experimental: as §1

[16] = system: NK-92 (IL-2 2.5 ng/mL); assay: percent inhibition of viability; higher = more inhibition; settings: 72 h
[17] = system: KAI3 (IL-2 2.5 ng/mL); assay: as above; settings: 72 h
[18] = system: YT (IL-2 2.5 ng/mL); assay: as above; settings: 72 h
[19] = system: NKL (IL-2 2.5 ng/mL); assay: as above; settings: 72 h
[20] = system: normal primary NK cells, pool 1 (3 donors) (IL-2 2.5 ng/mL); assay: as above; settings: 72 h
[21] = system: normal primary NK cells, pool 1 (3 donors), resting (IL-2 0 ng/mL); assay: as above; settings: 72 h
[22] = system: normal primary NK cells, pool 3 (3 donors) (IL-2 2.5 ng/mL); assay: as above; settings: 72 h
[23] = system: IMC-1 (IL-2 20 ng/mL); assay: as above; settings: 72 h
[24] = system: DERL-7 (IL-2 2.5 ng/mL); assay: as above; settings: 72 h
[25] = system: NK-YS (IL-2 2.5 ng/mL); assay: as above; settings: 72 h
[26] = system: KHYG-1 (IL-2 2.5 ng/mL); assay: as above; settings: 72 h
[27] = system: normal primary NK cells, pool 2 (3 donors) (IL-2 2.5 ng/mL); assay: as above; settings: 72 h
[28] = system: SNK-6 (IL-2 2.5 ng/mL); assay: as above; settings: 72 h

CN1CCc2c(c3ccccc3n2Cc2ccc(C(=O)NO)cc2)C1 [Tubastatin A] (max concentration tested 10000 nM)
Settings	drug sensitivity score
[1]	8.57
[2]	9.51
[3]	5.09
[4]	8.2
[5]	5.39
[6]	7.58
[7]	1.21
[8]	4.57
[9]	3.03
[10]	4.55
[11]	4.58
[12]	3.66
[13]	5.42
[15]	4.5

percent inhibition of viability [%]
Settings	1 nM	10 nM	100 nM	1000 nM	10000 nM
[14]	-5.45	-1.84	-1.29	9.86	53.5
[16]	-3.57	-14.2	-5.66	22.2	92.4
[17]	2.16	-0.84	7.18	38.8	90.5
[18]	-0.87	-2.95	-0.96	6.63	72.9
[19]	-6.98	-8.33	6.76	35.4	74.1
[20]	7.05	12.2	16.9	13	63.5
[21]	8.81	19.6	12	26.2	81.9
[22]	-0.16	11.4	-0.85	-0.8	29.6
[23]	-3.32	-4.63	-0.4	-1.55	84.5
[24]	-3.55	1.06	-2.9	-2.52	60
[25]	-4.34	-5.38	-3.76	9.99	54.1
[26]	-2.63	-7.38	-2.24	5.2	68.8
[27]	-2.86	0.66	3.2	7.48	46.4
[28]	8.54	0.91	4.89	18.5	57

CN[C@@H]1C[C@H]2O[C@@](C)([C@@H]1OC)n1c3ccccc3c3c4c(c5c6ccccc6n2c5c31)C(=O)N[C@H]4O [UCN-01] (max concentration tested 10000 nM)
Settings	drug sensitivity score
[1]	29.2
[2]	32.4
[3]	20.2
[4]	27.4
[5]	23.8
[6]	18.3
[7]	22.5
[8]	17.1
[9]	30.4
[10]	27.8
[11]	31.8
[12]	24.8
[13]	34
[15]	28.5

percent inhibition of viability [%]
Settings	1 nM	10 nM	100 nM	1000 nM	10000 nM
[14]	0.67	13.9	76.9	100	101
[16]	-0.38	4.42	89.2	107	109
[17]	6.37	19.1	95.1	105	107
[18]	4.61	17.4	28.1	93	108
[19]	-2.69	2.69	78.1	90.6	106
[20]	4.79	0.37	51.1	95.7	99.2
[21]	-5.95	4.23	23.4	84.6	92.1
[22]	-5.75	2.95	40.4	97.2	101
[23]	-7.27	-2.85	-13.4	100	101
[24]	8.29	22.9	82.2	101	101
[25]	2.38	1.74	83.6	96.9	105
[26]	4.96	7.2	103	110	108
[27]	-7.23	6.32	58.8	95.4	99
[28]	-11	34	92.7	100	101

O=c1ncn2nc(Sc3ccc(F)cc3F)ccc2c1-c1c(Cl)cccc1Cl [VX 745] (max concentration tested 10000 nM)
Settings	drug sensitivity score
[1]	3.48
[2]	6.91
[3]	2.49
[4]	7.53
[5]	1.96
[6]	5.57
[7]	0.07
[8]	1.58
[9]	0.75
[10]	4.52
[11]	1.17
[12]	0.67
[13]	1.52
[15]	0.12

percent inhibition of viability [%]
Settings	1 nM	10 nM	100 nM	1000 nM	10000 nM
[14]	-6.57	-6.69	-2.69	10.6	7.59
[16]	-11.3	-20.3	-9.85	11	37.8
[17]	3.09	5.9	15.3	25.4	59.7
[18]	-3.02	-3.06	-2.2	8.23	29.8
[19]	-15.3	-9.23	3.92	36	58.3
[20]	1.17	8.88	0.28	10.7	23.3
[21]	13.8	12.2	18.8	9.48	37.9
[22]	-1.25	-5.79	8.52	-4.71	13.8
[23]	-8.82	-3.76	-6.12	4.33	24.7
[24]	0.51	2.58	3.17	-1.44	23.6
[25]	-7.93	-3.47	3.09	15.2	47.7
[26]	-5.86	-3.96	-4.73	1.64	25
[27]	-5.75	-3.08	5.63	1.25	19.1
[28]	-5.31	-15.8	-5.14	3.14	26.2
